One compound from article PMC7180948, “New Insights into 4-Anilinoquinazolines as Inhibitors of Cardiac Troponin I–Interacting Kinase (TNNi3K)” (Molecules, 2020) can be followed below.

Common to all, as to assay: biochemical
What all share (set-up): KINOMEscan competition binding panel (Eurofins DiscoverX), single concentration, % inhibition
What all share (settings): read-out: 7 at 1 µM % inhibition

For one assay, the target named is MAP4K5 (Homo sapiens, UniProt Q9Y4K4). The gist of the method: (§1)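 KINOMEscan binding panel of >400 kinases, run by Eurofins DiscoverX, with compounds tested at a single concentration of 1 µM.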
The target in a further assay is EGFR (Homo sapiens, UniProt P00533). The gist of the method: as §1
In a further assay the target is T1, MEK6 (Homo sapiens, UniProt P52564).
T1 construct: gene MAP2K6
The method in brief:
as §1

Assay [1] concerns the target T2, RSK3(Kin.Dom.1-N-terminal) (Homo sapiens, UniProt Q15349).
T2 construct: gene RPS6KA2; Kin.Dom.1-N-terminal
The gist of the method:
as §1

The next assay has as its target ACVR1B (Homo sapiens, UniProt P36896). The gist of the method: as §1
Another assay concerns the target CAMK1G (Homo sapiens, UniProt Q96NX5). The method in brief: as §1
The next assay has as its target T3, JNK3 (Homo sapiens, UniProt P53779).
T3 construct: gene MAPK10
The method in brief:
as §1

In the next assay the target is TNIK (Homo sapiens, UniProt Q9UKE5). The gist of the method:
as §1

The target of another assay is MKNK1 (Homo sapiens, UniProt Q9BUB5). The gist of the method: as §1
Sequence of MKNK1 (Q9BUB5 whole entry): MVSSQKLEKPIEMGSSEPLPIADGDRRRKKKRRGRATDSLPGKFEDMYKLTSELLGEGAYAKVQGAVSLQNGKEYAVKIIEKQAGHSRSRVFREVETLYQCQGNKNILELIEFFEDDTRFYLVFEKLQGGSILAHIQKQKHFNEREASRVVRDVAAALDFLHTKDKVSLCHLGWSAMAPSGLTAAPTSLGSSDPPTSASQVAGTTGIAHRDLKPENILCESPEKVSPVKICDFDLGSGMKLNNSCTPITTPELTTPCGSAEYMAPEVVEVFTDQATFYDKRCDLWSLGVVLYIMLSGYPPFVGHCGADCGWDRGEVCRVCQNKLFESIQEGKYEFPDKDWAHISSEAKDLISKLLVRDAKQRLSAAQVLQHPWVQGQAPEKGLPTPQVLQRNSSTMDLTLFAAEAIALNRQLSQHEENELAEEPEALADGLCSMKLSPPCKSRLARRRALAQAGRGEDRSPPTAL
The target in the next assay is PIK3CG (Homo sapiens, UniProt P48736). The method in brief:
as §1

The target of a further assay is BRAF (Homo sapiens, UniProt P15056). The method in brief: as §1
Sequence of BRAF (P15056 whole entry): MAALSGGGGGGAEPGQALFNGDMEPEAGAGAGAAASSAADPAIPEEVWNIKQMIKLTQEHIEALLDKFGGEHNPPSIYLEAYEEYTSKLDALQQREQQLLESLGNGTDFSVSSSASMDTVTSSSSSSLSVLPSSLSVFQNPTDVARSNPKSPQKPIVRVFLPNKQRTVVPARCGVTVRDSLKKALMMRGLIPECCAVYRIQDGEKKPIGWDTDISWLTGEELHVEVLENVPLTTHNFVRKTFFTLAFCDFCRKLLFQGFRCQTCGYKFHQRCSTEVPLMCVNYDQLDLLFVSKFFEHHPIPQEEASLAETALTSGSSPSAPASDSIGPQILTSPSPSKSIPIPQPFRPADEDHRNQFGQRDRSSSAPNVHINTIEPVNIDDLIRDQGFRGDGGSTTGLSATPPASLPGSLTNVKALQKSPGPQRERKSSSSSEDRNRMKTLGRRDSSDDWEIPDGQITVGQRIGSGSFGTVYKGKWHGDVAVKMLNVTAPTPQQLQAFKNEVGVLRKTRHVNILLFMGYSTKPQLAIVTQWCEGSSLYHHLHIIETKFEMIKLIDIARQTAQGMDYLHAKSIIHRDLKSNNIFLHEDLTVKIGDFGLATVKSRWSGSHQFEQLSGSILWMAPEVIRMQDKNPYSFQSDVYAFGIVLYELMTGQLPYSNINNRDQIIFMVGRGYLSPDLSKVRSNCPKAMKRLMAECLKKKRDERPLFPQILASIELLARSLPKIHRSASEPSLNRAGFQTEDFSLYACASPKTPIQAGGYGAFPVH
In another assay the target is T4, DLK (Homo sapiens, UniProt Q12852).
T4 construct: gene MAP3K12
The method in brief:
as §1

The target in the next assay is CSNK1E (Homo sapiens, UniProt P49674). The gist of the method:
as §1

A further assay concerns the target BRSK1 (Homo sapiens, UniProt Q8TDC3). The gist of the method: as §1
The target of assay [2] is T5, RSK3(Kin.Dom.2-C-terminal) (Homo sapiens, UniProt Q15349).
T5 construct: gene RPS6KA2; Kin.Dom.2-C-terminal
The method in brief:
as §1

The next assay addresses FES (Homo sapiens, UniProt P07332). The method in brief:
as §1

The next assay concerns the target MAST1 (Homo sapiens, UniProt Q9Y2H9). The method in brief:
as §1

A further assay addresses BMPR2 (Homo sapiens, UniProt Q13873). The method in brief: as §1
A further assay concerns the target FGFR3 (Homo sapiens, UniProt P22607). The gist of the method: as §1
The target of assay [3] is T6, ABL1(T315I)-nonphosphorylated (Homo sapiens, UniProt P00519, T315I).
T6 construct: nonphosphorylated
The gist of the method:
as §1

The next assay deals with CLK2 (Homo sapiens, UniProt P49760). The method in brief:
as §1

Another assay has as its target LRRK2 (Homo sapiens, UniProt Q5S007). The method in brief:
as §1

For a further assay, the target named is T7, HPK1 (Homo sapiens, UniProt Q92918).
T7 construct: gene MAP4K1
The method in brief:
as §1

The next assay deals with WNK3 (Homo sapiens, UniProt Q9BYP7). The gist of the method: as §1

The term inhibition denotes how much of the control response was suppressed.

Sequence of LRRK2 (Q5S007 whole entry): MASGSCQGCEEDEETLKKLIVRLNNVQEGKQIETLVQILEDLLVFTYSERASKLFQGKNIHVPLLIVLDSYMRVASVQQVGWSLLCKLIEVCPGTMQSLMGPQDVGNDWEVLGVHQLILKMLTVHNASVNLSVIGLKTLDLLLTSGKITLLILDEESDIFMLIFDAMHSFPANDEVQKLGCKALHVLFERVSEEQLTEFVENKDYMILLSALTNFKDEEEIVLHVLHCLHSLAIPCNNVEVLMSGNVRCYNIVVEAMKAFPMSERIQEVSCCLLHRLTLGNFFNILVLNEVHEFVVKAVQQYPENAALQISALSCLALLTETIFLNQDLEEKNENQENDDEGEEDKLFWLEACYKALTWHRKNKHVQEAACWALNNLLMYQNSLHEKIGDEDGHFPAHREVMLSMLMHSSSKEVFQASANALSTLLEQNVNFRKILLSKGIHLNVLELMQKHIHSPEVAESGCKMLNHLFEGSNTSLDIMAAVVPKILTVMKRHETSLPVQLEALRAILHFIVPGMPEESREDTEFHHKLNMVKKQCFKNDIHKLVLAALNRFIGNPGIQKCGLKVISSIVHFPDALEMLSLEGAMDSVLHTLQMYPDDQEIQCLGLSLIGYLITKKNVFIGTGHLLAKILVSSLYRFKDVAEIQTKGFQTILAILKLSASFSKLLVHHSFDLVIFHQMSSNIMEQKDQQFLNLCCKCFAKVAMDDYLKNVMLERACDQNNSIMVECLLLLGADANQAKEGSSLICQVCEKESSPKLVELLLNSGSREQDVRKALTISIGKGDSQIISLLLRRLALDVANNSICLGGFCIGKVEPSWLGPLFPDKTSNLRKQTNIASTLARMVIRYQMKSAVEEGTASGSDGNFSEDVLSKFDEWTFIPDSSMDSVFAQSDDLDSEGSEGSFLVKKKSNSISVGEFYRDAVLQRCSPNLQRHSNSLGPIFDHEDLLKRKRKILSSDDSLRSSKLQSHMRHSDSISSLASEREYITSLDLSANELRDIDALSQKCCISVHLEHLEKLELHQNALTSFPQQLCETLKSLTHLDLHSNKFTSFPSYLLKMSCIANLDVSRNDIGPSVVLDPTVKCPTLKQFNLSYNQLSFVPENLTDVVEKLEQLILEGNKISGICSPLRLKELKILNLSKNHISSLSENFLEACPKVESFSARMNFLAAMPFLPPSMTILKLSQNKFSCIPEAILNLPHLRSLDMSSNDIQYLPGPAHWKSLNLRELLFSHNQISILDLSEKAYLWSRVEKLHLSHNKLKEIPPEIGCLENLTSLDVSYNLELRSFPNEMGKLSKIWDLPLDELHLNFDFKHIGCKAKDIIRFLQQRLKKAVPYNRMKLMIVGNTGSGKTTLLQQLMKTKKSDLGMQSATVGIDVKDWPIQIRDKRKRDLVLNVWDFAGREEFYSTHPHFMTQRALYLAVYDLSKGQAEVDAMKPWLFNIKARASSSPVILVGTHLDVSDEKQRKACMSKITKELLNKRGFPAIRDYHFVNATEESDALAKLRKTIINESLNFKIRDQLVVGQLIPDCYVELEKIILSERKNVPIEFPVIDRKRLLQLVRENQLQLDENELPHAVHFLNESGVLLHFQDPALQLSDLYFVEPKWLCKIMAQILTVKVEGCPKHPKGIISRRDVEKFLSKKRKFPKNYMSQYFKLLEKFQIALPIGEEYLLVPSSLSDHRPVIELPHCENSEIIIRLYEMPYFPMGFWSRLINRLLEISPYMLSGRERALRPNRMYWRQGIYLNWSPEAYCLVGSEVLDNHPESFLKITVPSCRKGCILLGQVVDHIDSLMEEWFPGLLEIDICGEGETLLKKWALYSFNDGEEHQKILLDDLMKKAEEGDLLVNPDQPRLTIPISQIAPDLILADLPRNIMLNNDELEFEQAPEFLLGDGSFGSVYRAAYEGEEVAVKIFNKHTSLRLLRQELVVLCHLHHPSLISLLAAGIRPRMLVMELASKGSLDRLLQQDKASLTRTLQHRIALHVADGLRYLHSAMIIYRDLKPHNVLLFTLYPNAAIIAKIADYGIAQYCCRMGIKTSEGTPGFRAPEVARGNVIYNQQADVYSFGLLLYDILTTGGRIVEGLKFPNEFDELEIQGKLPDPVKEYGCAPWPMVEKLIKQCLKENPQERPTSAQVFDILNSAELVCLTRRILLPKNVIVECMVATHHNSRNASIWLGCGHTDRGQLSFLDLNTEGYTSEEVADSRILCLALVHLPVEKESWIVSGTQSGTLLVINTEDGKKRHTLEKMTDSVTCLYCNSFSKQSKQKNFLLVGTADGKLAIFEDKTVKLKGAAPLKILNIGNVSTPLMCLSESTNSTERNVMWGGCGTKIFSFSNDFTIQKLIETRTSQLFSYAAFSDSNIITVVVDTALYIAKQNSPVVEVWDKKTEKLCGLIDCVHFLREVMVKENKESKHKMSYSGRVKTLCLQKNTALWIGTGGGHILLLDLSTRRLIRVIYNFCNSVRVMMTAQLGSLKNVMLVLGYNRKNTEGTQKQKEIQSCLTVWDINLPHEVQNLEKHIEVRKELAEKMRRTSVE
Sequence of PIK3CG (P48736 whole entry): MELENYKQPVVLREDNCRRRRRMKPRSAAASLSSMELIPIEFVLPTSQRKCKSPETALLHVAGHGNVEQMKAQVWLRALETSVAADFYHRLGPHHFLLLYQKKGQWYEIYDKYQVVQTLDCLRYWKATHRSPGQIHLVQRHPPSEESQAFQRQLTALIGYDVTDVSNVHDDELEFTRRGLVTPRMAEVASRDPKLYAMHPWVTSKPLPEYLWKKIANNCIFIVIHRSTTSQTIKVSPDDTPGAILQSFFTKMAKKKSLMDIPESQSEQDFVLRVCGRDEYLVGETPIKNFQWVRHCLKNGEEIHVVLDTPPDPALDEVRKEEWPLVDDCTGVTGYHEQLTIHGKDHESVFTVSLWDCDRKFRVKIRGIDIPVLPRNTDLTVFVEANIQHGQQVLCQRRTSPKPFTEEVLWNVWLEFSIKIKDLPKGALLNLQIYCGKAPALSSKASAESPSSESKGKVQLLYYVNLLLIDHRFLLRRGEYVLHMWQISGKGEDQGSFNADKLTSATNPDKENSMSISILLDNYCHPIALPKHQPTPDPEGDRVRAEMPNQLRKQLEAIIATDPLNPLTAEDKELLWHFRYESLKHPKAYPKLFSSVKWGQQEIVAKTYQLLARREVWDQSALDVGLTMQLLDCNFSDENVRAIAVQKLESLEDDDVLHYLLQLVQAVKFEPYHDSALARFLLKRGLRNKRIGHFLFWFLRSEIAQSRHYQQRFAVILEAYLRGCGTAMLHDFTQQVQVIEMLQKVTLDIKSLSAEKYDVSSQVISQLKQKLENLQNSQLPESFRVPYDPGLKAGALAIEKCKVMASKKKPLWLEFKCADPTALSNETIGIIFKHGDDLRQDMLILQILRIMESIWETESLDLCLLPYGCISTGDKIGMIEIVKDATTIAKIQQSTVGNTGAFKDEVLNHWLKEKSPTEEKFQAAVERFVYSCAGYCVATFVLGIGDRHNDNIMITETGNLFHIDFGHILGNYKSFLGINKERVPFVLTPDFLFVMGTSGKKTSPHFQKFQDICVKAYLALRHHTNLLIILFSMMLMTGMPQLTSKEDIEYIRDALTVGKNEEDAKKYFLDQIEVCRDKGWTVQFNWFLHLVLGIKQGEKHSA

Turning to `CNS(=O)(=O)c1ccc(N(C)C)c(Nc2ncnc3cc(OC)c(OC)cc23)c1` [compound 7, 3-((6,7-dimethoxyquinazolin-4-yl)amino)-4-(dimethylamino)-N-methylbenzenesulfonamide], the inhibition at 1 µM (on MAP4K5; at EGFR; on MEK6; in assay [1]; on ACVR1B; at CAMK1G) was 0% in each case. Moreover, the inhibition at 1 µM was determined as 0% on JNK3; 7% at TNIK; 10% on MKNK1; 45% at PIK3CG; 84% on BRAF; 21% on DLK. Besides, the inhibition at 1 µM was 0% on CSNK1E; 0% on BRSK1; 0% in assay [2]; 0% on FES; 10% on MAST1; 0% on BMPR2. In addition, the inhibition at 1 µM on FGFR3 is 0%; in assay [3] it was 33%; at CLK2, 7%; at LRRK2, 9%; at HPK1, 0%; at WNK3 it was 2%.
